Measured values from ChEMBL document CHEMBL3425433, “Discovery of bicyclic pyrazoles as class III histone deacetylase SIRT1 and SIRT2 inhibitors” (Bioorg Med Chem Lett, 2015).
Calls of active or inactive are those of the source. No cut-off for these calls is given here.

Assays:
[1] = target: Histone deacetylase 5 (Homo sapiens) (UniProt Q9UQL6); experiment: Inhibition of HDAC5 (unknown origin) at 20 uM
[2] = target: Histone deacetylase 4 (Homo sapiens) (UniProt P56524); experiment: Inhibition of HDAC4 (unknown origin) at 20 uM
[3] = target: T1, Histone deacetylase 7 (Homo sapiens) (UniProt Q8WUI4); experiment: Inhibition of HDAC7 (unknown origin) at 20 uM
T1 sequence (whole entry): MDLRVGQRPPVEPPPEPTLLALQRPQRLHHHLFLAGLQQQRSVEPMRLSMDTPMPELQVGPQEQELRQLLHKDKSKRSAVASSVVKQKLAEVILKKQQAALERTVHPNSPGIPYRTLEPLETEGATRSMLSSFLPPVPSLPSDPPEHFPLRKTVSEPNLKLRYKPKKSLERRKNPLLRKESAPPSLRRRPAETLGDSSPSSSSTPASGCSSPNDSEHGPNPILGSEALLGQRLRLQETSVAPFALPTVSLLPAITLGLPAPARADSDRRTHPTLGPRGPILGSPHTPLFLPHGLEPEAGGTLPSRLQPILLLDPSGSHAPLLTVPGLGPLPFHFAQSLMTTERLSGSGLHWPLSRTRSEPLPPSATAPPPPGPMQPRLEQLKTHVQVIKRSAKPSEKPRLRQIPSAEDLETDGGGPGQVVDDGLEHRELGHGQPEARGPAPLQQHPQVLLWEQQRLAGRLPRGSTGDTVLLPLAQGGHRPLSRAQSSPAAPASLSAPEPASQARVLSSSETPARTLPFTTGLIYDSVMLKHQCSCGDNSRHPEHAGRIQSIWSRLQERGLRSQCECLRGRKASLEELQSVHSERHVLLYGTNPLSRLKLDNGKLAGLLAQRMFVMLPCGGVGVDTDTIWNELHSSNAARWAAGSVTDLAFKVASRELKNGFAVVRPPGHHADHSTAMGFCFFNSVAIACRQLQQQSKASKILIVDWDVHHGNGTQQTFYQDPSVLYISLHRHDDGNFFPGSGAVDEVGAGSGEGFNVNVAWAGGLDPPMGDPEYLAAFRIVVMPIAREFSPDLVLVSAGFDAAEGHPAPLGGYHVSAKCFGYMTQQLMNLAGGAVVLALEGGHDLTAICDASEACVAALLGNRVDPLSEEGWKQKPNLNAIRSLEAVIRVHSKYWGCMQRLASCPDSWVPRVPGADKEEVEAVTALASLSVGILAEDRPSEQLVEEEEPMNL

[4] = target: T2, Protein deacetylase HDAC6 (Homo sapiens, UniProt Q9UBN7); experiment: Inhibition of HDAC6 (unknown origin)
T2 sequence (Q9UBN7 whole entry): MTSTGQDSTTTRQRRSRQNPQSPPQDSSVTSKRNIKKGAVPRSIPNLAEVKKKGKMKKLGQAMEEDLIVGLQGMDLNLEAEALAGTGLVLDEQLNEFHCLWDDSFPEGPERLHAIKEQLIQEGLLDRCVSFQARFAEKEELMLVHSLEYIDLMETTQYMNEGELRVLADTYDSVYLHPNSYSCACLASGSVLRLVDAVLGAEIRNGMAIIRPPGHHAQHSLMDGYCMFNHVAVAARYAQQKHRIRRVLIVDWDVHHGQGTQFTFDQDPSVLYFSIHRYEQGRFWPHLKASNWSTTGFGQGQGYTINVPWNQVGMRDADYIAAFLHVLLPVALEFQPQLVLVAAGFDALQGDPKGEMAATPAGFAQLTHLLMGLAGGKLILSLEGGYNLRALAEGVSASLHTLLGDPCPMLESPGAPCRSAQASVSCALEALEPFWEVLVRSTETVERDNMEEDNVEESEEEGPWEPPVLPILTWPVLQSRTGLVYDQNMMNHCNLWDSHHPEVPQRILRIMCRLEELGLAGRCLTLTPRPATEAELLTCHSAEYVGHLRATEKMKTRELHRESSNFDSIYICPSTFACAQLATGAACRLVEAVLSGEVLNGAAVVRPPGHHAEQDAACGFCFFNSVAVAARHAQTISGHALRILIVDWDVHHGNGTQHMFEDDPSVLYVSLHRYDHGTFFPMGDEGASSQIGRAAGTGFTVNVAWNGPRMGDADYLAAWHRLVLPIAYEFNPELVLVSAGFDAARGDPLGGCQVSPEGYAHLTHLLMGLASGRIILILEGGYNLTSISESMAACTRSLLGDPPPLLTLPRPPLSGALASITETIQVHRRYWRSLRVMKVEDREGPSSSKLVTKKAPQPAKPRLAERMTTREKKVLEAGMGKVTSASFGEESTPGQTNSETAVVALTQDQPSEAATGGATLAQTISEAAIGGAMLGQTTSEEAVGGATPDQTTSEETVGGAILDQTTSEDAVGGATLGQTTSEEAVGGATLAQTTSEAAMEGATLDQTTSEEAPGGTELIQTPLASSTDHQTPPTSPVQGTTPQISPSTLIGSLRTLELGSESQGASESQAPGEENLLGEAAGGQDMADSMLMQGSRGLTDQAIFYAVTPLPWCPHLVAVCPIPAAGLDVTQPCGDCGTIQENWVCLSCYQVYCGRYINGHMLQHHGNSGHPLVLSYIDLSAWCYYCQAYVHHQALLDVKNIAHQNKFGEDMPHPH

Histone deacetylase 8 = target: T3, Histone deacetylase 8 (Homo sapiens, UniProt Q9BY41); experiment: Inhibition of HDAC8 (unknown origin)
T3 sequence (Q9BY41 whole entry): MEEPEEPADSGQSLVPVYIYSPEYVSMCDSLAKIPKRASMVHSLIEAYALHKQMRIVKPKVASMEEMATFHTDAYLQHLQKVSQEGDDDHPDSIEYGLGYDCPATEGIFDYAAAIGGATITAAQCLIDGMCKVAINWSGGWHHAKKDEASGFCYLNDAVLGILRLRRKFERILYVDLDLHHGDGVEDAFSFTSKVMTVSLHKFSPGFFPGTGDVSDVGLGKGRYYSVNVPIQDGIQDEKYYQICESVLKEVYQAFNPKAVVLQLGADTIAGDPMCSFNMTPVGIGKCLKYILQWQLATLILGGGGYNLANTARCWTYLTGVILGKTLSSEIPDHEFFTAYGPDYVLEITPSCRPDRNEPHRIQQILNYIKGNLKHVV

Histone deacetylase 4 (Homo sapiens), sequence (P56524 whole entry): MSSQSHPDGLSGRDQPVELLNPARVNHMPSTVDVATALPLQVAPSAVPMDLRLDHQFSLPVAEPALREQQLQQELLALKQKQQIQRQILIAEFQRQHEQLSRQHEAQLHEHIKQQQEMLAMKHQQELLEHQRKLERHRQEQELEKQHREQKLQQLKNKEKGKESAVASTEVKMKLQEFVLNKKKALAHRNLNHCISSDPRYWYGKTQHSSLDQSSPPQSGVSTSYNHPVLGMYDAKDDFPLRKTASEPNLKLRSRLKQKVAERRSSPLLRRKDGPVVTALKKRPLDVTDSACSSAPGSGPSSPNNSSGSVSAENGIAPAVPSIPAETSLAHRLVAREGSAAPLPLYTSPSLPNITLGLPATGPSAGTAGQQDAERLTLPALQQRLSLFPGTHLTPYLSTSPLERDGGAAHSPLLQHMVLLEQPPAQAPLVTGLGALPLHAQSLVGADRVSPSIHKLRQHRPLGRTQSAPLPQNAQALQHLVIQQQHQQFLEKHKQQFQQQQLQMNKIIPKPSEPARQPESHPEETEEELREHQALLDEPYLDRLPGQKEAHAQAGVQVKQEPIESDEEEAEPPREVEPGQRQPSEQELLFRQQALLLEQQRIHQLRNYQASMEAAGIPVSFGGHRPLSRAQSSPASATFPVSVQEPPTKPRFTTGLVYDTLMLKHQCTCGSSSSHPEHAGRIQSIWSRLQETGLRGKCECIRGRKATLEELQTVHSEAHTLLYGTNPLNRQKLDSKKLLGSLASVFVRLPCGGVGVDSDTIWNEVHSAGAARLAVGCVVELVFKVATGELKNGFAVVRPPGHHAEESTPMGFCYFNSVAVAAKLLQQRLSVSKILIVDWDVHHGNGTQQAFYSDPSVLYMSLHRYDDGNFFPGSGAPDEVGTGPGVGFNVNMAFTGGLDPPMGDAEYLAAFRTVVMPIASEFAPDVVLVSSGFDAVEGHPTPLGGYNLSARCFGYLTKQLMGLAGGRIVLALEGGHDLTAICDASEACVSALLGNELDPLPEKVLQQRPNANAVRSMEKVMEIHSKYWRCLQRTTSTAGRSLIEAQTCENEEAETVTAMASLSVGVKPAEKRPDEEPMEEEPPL
Histone deacetylase 5 (Homo sapiens), sequence (Q9UQL6 whole entry): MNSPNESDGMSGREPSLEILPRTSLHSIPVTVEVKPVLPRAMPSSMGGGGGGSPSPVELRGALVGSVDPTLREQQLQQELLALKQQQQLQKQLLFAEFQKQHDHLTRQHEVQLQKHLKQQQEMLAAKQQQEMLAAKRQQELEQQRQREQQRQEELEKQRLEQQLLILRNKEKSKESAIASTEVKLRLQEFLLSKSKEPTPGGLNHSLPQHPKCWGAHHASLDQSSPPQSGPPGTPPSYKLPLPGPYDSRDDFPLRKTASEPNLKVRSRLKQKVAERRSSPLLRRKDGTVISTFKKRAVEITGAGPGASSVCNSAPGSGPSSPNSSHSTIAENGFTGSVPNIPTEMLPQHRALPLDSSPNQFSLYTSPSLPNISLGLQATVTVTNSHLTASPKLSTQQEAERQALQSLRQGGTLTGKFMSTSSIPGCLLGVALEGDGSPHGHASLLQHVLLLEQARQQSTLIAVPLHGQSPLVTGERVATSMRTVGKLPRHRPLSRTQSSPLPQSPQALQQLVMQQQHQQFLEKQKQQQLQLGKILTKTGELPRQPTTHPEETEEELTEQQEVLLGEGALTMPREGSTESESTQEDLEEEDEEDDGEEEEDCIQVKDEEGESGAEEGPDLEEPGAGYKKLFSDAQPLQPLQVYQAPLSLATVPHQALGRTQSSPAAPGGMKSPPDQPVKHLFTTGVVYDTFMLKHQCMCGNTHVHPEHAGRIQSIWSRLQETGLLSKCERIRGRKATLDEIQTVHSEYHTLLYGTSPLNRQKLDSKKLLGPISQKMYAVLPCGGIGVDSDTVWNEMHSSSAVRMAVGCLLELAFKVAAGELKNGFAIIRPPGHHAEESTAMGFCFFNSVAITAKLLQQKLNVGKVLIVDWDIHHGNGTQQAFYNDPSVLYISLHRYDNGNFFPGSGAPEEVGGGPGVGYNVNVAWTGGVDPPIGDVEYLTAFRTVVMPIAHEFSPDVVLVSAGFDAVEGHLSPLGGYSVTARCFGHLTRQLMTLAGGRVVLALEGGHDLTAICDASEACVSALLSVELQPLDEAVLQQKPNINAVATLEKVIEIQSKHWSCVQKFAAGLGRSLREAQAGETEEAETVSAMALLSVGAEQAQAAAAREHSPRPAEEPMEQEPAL

inhibition [1]: inactive
inhibition [2]: inactive
inhibition [3]: inactive
IC50 [4]: > 10 µM
IC50 (Histone deacetylase 8): > 10 µM
SMILES: NC(=O)C1CCCc2c(-c3ccc(Cl)c(Cl)c3)n[nH]c21 (racemic)
